Source: US8076094B2, “Phosphorylation of histone H3 at threonine 11—a novel epigenetic mark for transcriptional regulation” (Universitaetsklinixum Freiburg, priority 2007, dated 2011)
“Also recorded” adds a separate entry of the source.

Tests used:
[1] = tested on: PSA and KLK2 promoters in LNCaP cells; assay: Chromatin immunoprecipitation (ChIP) at AREs of PSA and KLK2 promoters in LNCaP cells; assay type: cell-based; conditions: for ligand-induced phosphorylation of H3T11 at AREs of PSA and KLK2 promoters: 1×10^−8 M R1881 45 min, FIG. 2d, e; for S5-P CTD pol II at the promoters of PSA and KLK2 / recruitment of RNA polymerase II (α-NTD pol II): Ro318220 1×10^−5 M, FIG. 3f, g
Description: Chromatin Immunoprecipitation ChIP and Re-ChIP experiments were performed as described^5,9. LNCaP cells were cultured for 45 min (FIGS. 1c, 2d, 2e) or 210 min (FIG. 3a, b, f, g) in the presence or absence of 1×10^−8 M R1881 as indicated. Ro318220 (1×10^−5 M) was added to the LNCaP cells (FIG. 3b, g) 60 min before addition of R1881. Three days before harvesting, LNCaP cells were transfected with stealth RNAi (ctr: 5′-[…]-3′ (Sequence Protocol: 5) (SEQ ID NO: 5); PRK1: 5′-[…]-3′ (Sequence Protocol: 6) (SEQ ID NO: 6); Invitrogen) following the manufacturer's instructions. Immunoprecipitation was performed with specific antibodies (α-monoMeH3K9, α-diMeH3K9, α-triMeH3K9, α-acetyl-H3K9/K14, α-H3, α-AR (Upstate Biotechnology), α-S5-P CTD pol II, α-phosphoH3T11 (Abcam), α-NTD pol II (N-20, Santa Cruz), α-LSD1^5, α-JMJD2C^4, and α-PRK1) on protein A-Sepharose 4B (GE-Healthcare). For PCR, 1-5 μl out of 50 μl DNA extract was used. PCR primers for ARE I+II (PSA-459/-121), ARE III (PSA-4288/-3922), KLK2 (−343/-90), GAPDH, and U6 were described previously^5. Western Blot Analysis

[2] = tested on: endogenous PRK1 and AR in LNCaP cells; assay: Western blot analysis of knockdown in LNCaP cells; assay type: cell-based
Text: (§1) To initiate our study, we analysed the effect of PRK1 knockdown on the expression of endogenous AR target genes.
To determine whether PRK1 controls phosphorylation of H3T11 at promoters of AR-regulated genes in vivo, LNCaP cells were first transfected with either an unrelated control siRNA or a siRNA directed against PRK1, in the presence or absence of R1881, and then subjected to ChIP. Addition of ligand results in phosphorylation of H3T11 at the AREs of the PSA and KLK2 promoters (FIG. 2d, left panel). Androgen-induced phosphorylation at H3T11 is PRK1-dependent since it is blocked by knockdown of PRK1. […] To corroborate that androgen-induced phosphorylation of H3T11 is executed by PRK1, LNCaP cells were cultivated in the presence or absence of Ro318220 and subjected to ChIP.
Experiments were performed as described^2. Western blots were decorated as indicated.

[3] = tested on: androgen-induced expression of endogenous AR target genes PSA and KLK2 in LNCaP cells; assay: Quantitative RT-PCR of endogenous AR target genes in LNCaP cells; assay type: cell-based; conditions: presence or absence of R1881, FIG. 1a, b
Description: as §1
Quantitative RT-PCR and statistical analysis were performed as described^5. The primers for GAPDH, PSA, and KLK2 were described previously^5.

[4] = tested on: AR-dependent reporters in LNCaP cells; assay: AR-dependent reporter (luciferase) assay in LNCaP cells; assay type: cell-based; conditions: R1881, FIG. 5a, b
Description: CV1 and LNCaP cells were cultured and transfected as described^2. The following amounts were transfected per well: 500 ng of MMTV-LUC, Probasin-LUC, or PSA-LUC; 25 ng of AR expression plasmid; 200 ng (FIG. 3e) or 400 ng (FIG. 3c, d) expression plasmids of LSD1 or JMJD2C, 150 ng PRK1 K644E, 1000 ng expression plasmid of miRNA-control, miRNA1-PRK1, or miRNA2-PRK1 (FIG. 5a). Cells were cultivated for 18 hours in the presence or absence of 1×10^−10 M R1881 (Sigma), 2.5×10^−6 M (FIG. 3d) or 4.5×10^−6 M (FIG. 3c) Ro318220 (Roche) as indicated. Luciferase activity was assayed as described^2. All experiments were repeated at least four times in duplicate.

PRK1 = assay: In vitro kinase assay; assay type: biochemical
Description: To understand how association of PRK1 and AR with chromatin results in increased gene expression, we tested whether PRK1 directly phosphorylates the N-terminal tail of histone H3. Myc-PRK1 and the flag-tagged kinase dead mutant PRK1 K644E^2 were immunoprecipitated from 293 cell lysates with an α-myc or an α-flag antibody, respectively (FIG. 6a, b), and incubated with bacterially expressed and purified GST-H3 1-44 or GST control protein. GST-H3 1-44 is phosphorylated by PRK1, but not by PRK1 K644E (FIG. 2a).
In addition, we incubated nucleosomes purified from HeLa cells with recombinant PRK1 in the presence or absence of Ro318220. […] This phosphorylation is blocked by Ro318220 (FIG. 2c).
The kinase assays were performed as described^11. 10 μg GST-tagged H3 proteins or 1 μg of nucleosomes purified from HeLa cells^12 were incubated with immunoprecipitated PRK1 proteins (FIG. 2a) or 1 μg purified recombinant PRK1 (FIG. 2b, c; ProQinase GmbH) for 0 to 10 min (FIG. 2c) or 20 min (FIG. 2a, b) at 30° C. in kinase buffer containing 20 mM Tris-HCl pH 7.5, 20 μM ATP, 8 mM MgCl2, and 5 μCi (γ-^32P) ATP. The reaction mixture was analysed by SDS-PAGE followed by autoradiography or Western blotting using antibodies as indicated.

[5] = R1881 210 min, Ro318220 1×10^−5 M 60 min before R1881, stealth RNAi three days before harvesting, FIG. 3a, b

| Compound | ligand-induced phosphorylation of H3T11 at AREs of PSA and KLK2 promoters [1] | ligand-induced acetylation of H3K9/K14 [1, 5] | ligand-induced demethylation of tri-, di-, and monomethyl H3K9 [1, 5] | S5-P CTD pol II at the promoters of PSA and KLK2 ([1]; R1881 210 min) | recruitment of RNA polymerase II (α-NTD pol II) ([1]; R1881 210 min) | down-regulation of endogenous PRK1 ([2]; FIG. 1a, 2d right panels) | levels of endogenous AR ([2]; FIG. 2d right panel) | androgen-induced expression of endogenous AR target genes (PSA, KLK2) [3] | ligand-induced expression of AR-dependent reporters [4] | phosphorylation of GST-H3 1-44 by PRK1 (PRK1; immunoprecipitated Myc-PRK1, 20 min at 30° C., FIG. 2a) | phosphorylation of nucleosomes at H3T11 by PRK1 (PRK1; nucleosomes from HeLa cells, recombinant PRK1, 0 to 10 min, Western blot α-phosphoH3T11, FIG. 2c) |
| --- | --- | --- | --- | --- | --- | --- | --- | --- | --- | --- | --- |
| 5′-GAAAGUCCUAGAUCCACACGCAAAU-3′ (siRNA; Stealth RNAi from Invitrogen, chemistry not given here) [siRNA directed against PRK1] | blocked | blocked | severely impaired | loss | not affected | depletion is specific | does not affect | – | – | – | – |
| Cn1cc(C2=C(c3cn(CCCSC(=N)N)c4ccccc34)C(=O)NC2=O)c2ccccc21 [Ro318220] | efficiently blocks | – | loss | loss | not affected | – | – | reduce expression; also recorded: severely impedes | severely reduce; also recorded: strong decrease | completely blocks | blocked |
